Seven compounds from patent US10238658B2, “1-pyrazolyl-3-(4-((2-anilinopyrimidin-4-yl) oxy) napththalen-1-yl) ureas as p38 MAP kinase inhibitors” (Respivert Limited, priority 2011, dated 2019) can be followed below.

Some results are limits rather than exact numbers.

Assay [1] concerns TNFα. Kind of assay: LPS-induced TNFα release in THP-1 cells. In kind it is cell-based. The note with it: Homo sapiens, THP-1, THP1 cells. How it is done:
THP-1 cells, a human monocytic cell line, were stimulated with 3 μg/mL of LPS (from E. Coli; 0111:B4, Sigma) for 4 hr and the supernatant collected for determination of the TNFα concentration by sandwich ELISA (Duo-set, R&D systems). The inhibition of TNFα production was calculated at each concentration by comparison with vehicle control.

Another assay relates to ICAM-1. The assay is described as follows: Poly I:C-induced ICAM-1 expression in BEAS2B cells. In kind it is cell-based. To be noted: Homo sapiens, BEAS-2B, read-out: PolyIC/ICAM1 IC50 (BEAS2B). As to the method:
Poly I:C was used in these studies as a simple, RNA virus mimic. Poly I:C-Oligofectamine mixture (1 μg/mL Poly I:C, ±2% Oligofectamine, 25 μL; Invivogen Ltd., San Diego, Calif., and Invitrogen, Carlsbad, Calif., respectively) was transfected into BEAS2B cells (human bronchial epithelial cells, ATCC). Cells were pre-incubated with final concentrations of test compounds for 2 hr and the level of ICAM-1 expression on the cell surface was determined by cell-based ELISA. At a time point 18 hr after poly I:C transfection, cells were fixed with 4% formaldehyde in PBS (100 μL) and then endogenous peroxidase was quenched by the addition of washing buffer (100 μL, 0.05% Tween in PBS: PBS-Tween) containing 0.1% sodium azide and 1% hydrogen peroxide. Cells were washed with wash-buffer (3×200 μL). and after blocking the wells with 5% milk in PBS-Tween (100 μL) for 1 hr, the cells were incubated with anti-human ICAM-1 antibody (50 μL; Cell Signaling Technology, Danvers, Mass.) in 1% BSA PBS overnight at 4° C.
The cells were washed with PBS-Tween (3×200 μL) and incubated with the secondary antibody (100 μL; HRP-conjugated anti-rabbit IgG, Dako Ltd., Glostrup, Denmark). The cells were then incubated with of substrate (50 μL) for 2-20 min, followed by the addition of stop solution (50 μL, 1N H2SO4). The ICAM-1 signal was detected by reading […] the absorbance at 450 nm against a reference wavelength of 655 nm using a spectrophotometer. The cells were then washed with PBS-Tween (3×200 μL) and total cell numbers in each well were determined by reading absorbance at 595 nm after Crystal Violet staining (50 μL of a 2% solution in PBS) and elution by 1% SDS solution (100 μL) in distilled water. The measured OD 450-655 readings were corrected for cell number by dividing with the OD595 reading in each well. The inhibition of ICAM-1 expression was calculated at each concentration of test compound by comparison with vehicle control.

Assay [2] concerns TNFα. The assay is described as follows: LPS-induced TNFα release in d-U937 cells. To be noted: Homo sapiens, dU937, dU937 cells; relative to 10 μg/mL BIRB796; read-out: LPS Induced Release TNFα REC50 (dU937). In kind it is cell-based. How it is done:
(§1) U937 cells, a human monocytic cell line, were differentiated into macrophage-type cells by incubation with PMA (100 ng/mL) for 48 to 72 hr. Cells were pre-incubated with final concentrations of test compound for 2 hr and were then stimulated with LPS (0.1 μg/mL; from E. Coli: O111:B4, Sigma) for 4 hr. The supernatant was collected for determination of TNFα and IL-8 concentrations by sandwich ELISA (Duo-set, R&D systems). […] The relative 50% effective concentration (REC50) was determined from the resultant concentration-response curve. The inhibition of IL-8 production was calculated at each concentration of test compound by comparison with vehicle control.

Another assay has as its system PBMC. The assay is described as follows: Cell mitosis assay. In kind it is cell-based. To be noted: Homo sapiens, read-out: Mitosis Assay % inhibition in PBMC Cells at concn 5 μg/mL. As to the method:
Peripheral blood mononucleocytes (PBMCs) from healthy subjects were separated from whole blood (Quintiles, London, UK) using a density gradient (Histopaque®-1077, Sigma-Aldrich, Poole, UK). The PBMCs (3 million cells per sample) were subsequently treated with 2% PHA (Sigma-Aldrich, Poole, UK) for 48 hr, followed by a 20 hr exposure to varying concentrations of test compounds. At 2 hr before collection, PBMCs were treated with demecolcine (0.1 μg/mL; Invitrogen, Paisley, UK,) to arrest cells in metaphase. To observe mitotic cells, PBMCs were permeabilised and fixed by adding Intraprep (50 μL; Beckman Coulter, France), and stained with anti-phospho-histone 3 ([…]; #9701; Cell Signalling, Danvers, Mass.) and propidium iodide (1 mg/mL; Sigma-Aldrich, Poole, UK,) as previously described (Muehlbauer P. A. and Schuler M. J., Mutation Research, 2003, 537:117-130). Fluorescence was observed using an ATTUNE flow cytometer (Invitrogen, Paisley, UK), gating for lymphocytes.

Assay [3] concerns IL-8. The assay is described as follows: LPS-induced IL-8 release in d-U937 cells. In kind it is cell-based. To be noted: Homo sapiens, dU937, dU937 cells. How it is done: as §1
The next assay relates to HRV16. Kind of assay: HRV16 induced CPE in MRC5 cells. In kind it is cell-based. To be noted: Human rhinovirus sp., HRV16, MRC5, at 0.04 μg/mL; read-out: HRV CPE (MRC5) % inhibition. How it is done: The supernatants were aspirated, and then fresh media added followed by incubation for 4 days. Where appropriate, cells were pre-incubated with compound or DMSO for 2 hr, and the compounds and DMSO added again after washout of the virus.
The percentage inhibition for each well was calculated. The IC50 value was calculated from the concentration-response curve generated by the serial dilutions of the test compounds.

In assay [4] the test system is IL-8. Kind of assay: Rhinovirus-induced IL-8 release in BEAS2B cells. In kind it is cell-based. The note with it: Homo sapiens, BEAS-2B, at 0.04 μg/mL; read-out: HRV IL-8 (BEAS2B) % inhibition. As to the method:
Human rhinovirus RV16 was obtained from the American Type Culture Collection (Manassas, Va.). Viral stocks were generated by infecting Hela cells with HRV until 80% of the cells were cytopathic.
BEAS2B cells were infected with HRV at an MOI of 5 and incubated for 2 hr at 33° C. with gentle shaking for to promote absorption. The cells were then washed with PBS, fresh media added and the cells were incubated for a further 72 hr. The supernatant was collected for assay of IL-8 concentrations using a Duoset ELISA development kit (R&D systems, Minneapolis, Minn.). […]

Another assay has as its system RSV A2. The assay is described as follows: In vitro RSV virus load (F-protein ELISA) in primary bronchial epithelial cells. It counts as cell-based, respiratory syncytical virus. The note with it: human respiratory syncytial virus, Primary bronchial epithelial cell; at 0.04 μg/mL; read-out: RSV (F-Elisa) (HBEC) % inhibition. How it is done: Normal human bronchial epithelial cells (NHBEC) grown in 96 well plates were infected with RSV A2 (Strain A2, HFA, Salisbury, UK) at an MOI of 0.001 in the LHC8 Media:RPMI-1640 (50:50) containing 15 mM magnesium chloride and incubated for 1 hr at 37° C. for adsorption. The cells were then washed with PBS (3×200 μL), fresh media (200 μL) was added and incubation continued for 4 days. Where appropriate, cells were pre-incubated with the compound or DMSO for 2 hr, and then added again after washout of the virus.
The cells were fixed with 4% formaldehyde in PBS solution (50 μL) for 20 min, washed with washing buffer (3×200 μL; PBS including 0.5% BSA and 0.05% Tween-20) and incubated with blocking solution (5% condensed milk in PBS) for 1 hr. Cells were then washed with washing buffer (3×200 μL) and incubated for 1 hr at RT with anti-RSV (2F7) F-fusion protein antibody (40 μL; mouse monoclonal, lot 798760, Cat. No. ab43812, Abcam) in 5% BSA in PBS-tween). After washing, cells were incubated with an HRP-conjugated secondary antibody solution (50 μL) in 5% BSA in PBS-Tween (lot 00053170, Cat.No. P0447, Dako) and then TMB substrate (50 μL; substrate reagent pack, lot 269472, Cat. No. DY999, R&D Systems, Inc.) was added. This reaction was stopped by the addition of 2N H2SO4 (50 μL) and the resultant signal was determined colorimetrically (OD: 450 nm with a reference wavelength of 655 nm) in a microplate reader (Varioskan® Flash, ThermoFisher Scientific).
After washing with washing buffer, 1% SDS in distilled water (100 μL) was added to each well, and plates were shaken lightly on the shaker for 1 hr prior to reading the absorbance at 595 nm. The measured OD450-655 readings were corrected to the cell number by dividing the OD450-655 by the OD595 readings. The percentage inhibition for each well was calculated and the IC50 value was calculated from the concentration-response curve generated from the serial dilutions of compound.
A general note: ELISA stands for enzyme-linked immunosorbent assay.

As for `Cc1ccc(-n2nc(C(C)(C)C)cc2NC(=O)Nc2ccc(Oc3ccnc(Nc4ccc(O)cc4)n3)c3ccccc23)cc1` [Example 9, 1-(3-(tert-butyl)-1-(p-tolyl)-1H-pyrazol-5-yl)-3-(4-((2-((4-hydroxyphenyl)amino)pyrimidin-4-yl)oxy)naphthalen-1-yl)urea], the figures for the IC50 in the assay on TNFα [1], with ICAM-1 and in the assay on IL-8 [3] were 0.0013 µM, 0.003 µM and 0.0022 µM, respectively. In the assay with TNFα [2], the EC50 was determined as 0.0017 µM. In the assay on PBMC, the inhibition at 5 µg/mL is 50.3%. Also, the inhibition at 0.04 µg/mL in the assay with HRV16 and in the assay with IL-8 [4] was 100% each time.

Turning to `Cc1ccc(-n2nc(C(C)(C)C)cc2NC(=O)Nc2ccc(Oc3ccnc(Nc4ccc(F)cc4)n3)c3ccccc23)cc1` [Example 23, 1-(3-(tert-butyl)-1-(p-tolyl)-1H-pyrazol-5-yl)-3-(4-((2-((4-fluorophenyl)amino)pyrimidin-4-yl)oxy)naphthalen-1-yl)urea], the values for the IC50 in the assay with TNFα [1] and in the assay with IL-8 [3] were 0.024 µM and 0.022 µM, respectively. The values for the inhibition at 0.04 µg/mL in the assay on RSV A2, in the assay on HRV16 and in the assay with IL-8 [4] were 41%, 18% and 100%, respectively. The EC50 with TNFα [2] stood at 0.008 µM.

Consider `COc1ccccc1Nc1nccc(Oc2ccc(NC(=O)Nc3cc(C(C)(C)C)nn3-c3ccc(C)cc3)c3ccccc23)n1` [Example 5, 1-(3-(tert-butyl)-1-(p-tolyl)-1H-pyrazol-5-yl)-3-(4-((2-((2-methoxyphenyl)amino)pyrimidin-4-yl)oxy)naphthalen-1-yl)urea], for which the IC50 with TNFα [1] amounted to 0.066 µM; in the assay with ICAM-1 it was 0.017 µM; with IL-8 [3], 0.0062 µM. Besides, the EC50 in the assay on TNFα [2] worked out at 0.0029 µM. Also, the values for the inhibition at 0.04 µg/mL in the assay on HRV16 and in the assay with IL-8 [4] were 91% and 49%, respectively.

As to `Cc1ccc(-n2nc(C(C)(C)C)cc2NC(=O)Nc2ccc(Oc3ccnc(Nc4ccccc4C)n3)c3ccccc23)cc1` [Example 21, 1-(3-(tert-butyl)-1-(p-tolyl)-1H-pyrazol-5-yl)-3-(4-((2-(o-tolylamino)pyrimidin-4-yl)oxy)naphthalen-1-yl)urea], the results for the IC50 in the assay on TNFα [1] and in the assay with IL-8 [3] were 0.017 µM and above 1.68 µM, respectively. Besides, the results for the inhibition at 0.04 µg/mL in the assay with RSV A2, with HRV16 and with IL-8 [4] were 66%, 3% and 100%, respectively. In addition, the EC50 in the assay with TNFα [2] came to 0.0097 µM.

As for `Cc1ccc(-n2nc(C(C)(C)C)cc2NC(=O)Nc2ccc(Oc3ccnc(Nc4ccc(Cl)cc4C)n3)c3ccccc23)cc1` [Example 18, 1-(3-(tert-butyl)-1-(p-tolyl)-1H-pyrazol-5-yl)-3-(4-((2-((4-chloro-2-methylphenyl)amino)pyrimidin-4-yl)oxy)naphthalen-1-yl)urea], the values for the IC50 in the assay with TNFα [1], with ICAM-1 and with IL-8 [3] were 0.157 µM, 0.028 µM and 0.015 µM, respectively. The EC50 with TNFα [2] stood at 0.013 µM. The inhibition at 0.04 µg/mL with HRV16 was at most 0%; with IL-8 [4], 100%.

As for `Cc1ccc(-n2nc(C(C)(C)C)cc2NC(=O)Nc2ccc(Oc3ccnc(Nc4ccc(O)cc4C)n3)c3ccccc23)cc1` [Example 24, 1-(3-(tert-butyl)-1-(p-tolyl)-1H-pyrazol-5-yl)-3-(4-((2-((4-hydroxy-2-methylphenyl)amino)pyrimidin-4-yl)oxy)naphthalen-1-yl)urea], the IC50 in the assay on TNFα [1] came out at 0.0008 µM; in the assay on ICAM-1, 0.005 µM; in the assay with IL-8 [3] it was 0.086 µM. The EC50 in the assay on TNFα [2] was 0.0023 µM. The inhibition at 0.04 µg/mL in the assay with HRV16 came out at 41%; in the assay on IL-8 [4], 100%.

Regarding `CCOc1ccc(Nc2nccc(Oc3ccc(NC(=O)Nc4cc(C(C)(C)C)nn4-c4ccc(C)cc4)c4ccccc34)n2)cc1` [Example 22, 1-(3-(tert-butyl)-1-(p-tolyl)-1H-pyrazol-5-yl)-3-(4-((2-((4-ethoxyphenyl)amino)pyrimidin-4-yl)oxy)naphthalen-1-yl)urea], the figures for the IC50 with TNFα [1] and with IL-8 [3] were 0.03 µM and above 1.59 µM, respectively. The values for the inhibition at 0.04 µg/mL with RSV A2, in the assay on HRV16 and with IL-8 [4] were 78%, 48% and 100%, respectively. For the same compound, in the assay with TNFα [2], the EC50 turned out to be 0.017 µM. Moreover, in the assay on PBMC, the inhibition at 5 µg/mL is 70.8%.
